Assay results taken from ChEMBL document CHEMBL5137096, “Antiviral Profiling of C-18- or C-19-Functionalized Semisynthetic Abietane Diterpenoids” (J Nat Prod, 2022).
Calls of active or inactive are those of the source. The rule behind the calls is not given here.

Columns and labels:
[1] = tested on: Vero C1008; test: Cytotoxicity against African green monkey Vero E6 cells measured after 72 hrs by MTT assay; format: toxicity, cell-based; conditions: chlorocebus sabaeus, vero c1008, 72 h
[2] = tested on: BHK-21; test: Cytotoxicity against golden hamster BHK-21 cells measured after 6 days by MTT assay; format: toxicity, cell-based, Mesocricetus auratus; conditions: bhk-21, 144 h, time 6 day
[3] = tested on: Human alphaherpesvirus 1; format: functional, 29R, Vero E6; conditions: time 72 hrs
[4] = tested on: Chikungunya virus; format: functional, Vero E6; conditions: time 72 hrs
[5] = tested on: Zika virus; format: functional, Vero E6; conditions: time 72 hrs
[6] = tested on: dengue virus type 2; format: functional, Vero E6; conditions: time 72 hrs
[7] = tested on: dengue virus type 2; test: Antiviral activity against DENV2 infected in hamster BHK-21 cells assessed as inhibition of plaque formation by measuring reduction in PFU per well incubated for 6 days by crystal violet staining based assay; format: functional; conditions: time 6 day
[8] = tested on: Zika virus; format: functional, Vero E6; conditions: time 72 hrs; remark: listed apart in the source
[9] = tested on: Zika virus; test: Antiviral activity against ZIKV Col infected in African Green monkey Vero cells assessed as reduction in viral protein production at 3.1 to 25 ug/ml by ELISA relative control; format: functional; set-up: scale not given: the % may be the effect or the level left; conditions: dose 3.1-25 µg/ml; at 3.1 to 25 µg/mL
[10] = tested on: Zika virus; test: Antiviral activity against ZIKV IMT17; format: functional, organism-based
[11] = tested on: Zika virus; test: Antiviral activity against ZIKV Col infected in African Green monkey Vero cells assessed as inhibition of viral replication by measuring reduction in viral genomic copies at 12.5 to 25 ug/ml by qRT-PCR analysis; format: functional, organism-based; conditions: dose 12.5-25 µg/ml

Compound | CC100 [1] | CC100 [2] | EC [3] | EC [4] | EC [5] | EC [6] | EC [7] | EC [8] | Activity [9] | EC50 [10] | inhibition [11]
COC(=O)[C@]1(C)CCC[C@]2(C)c3cc(C(C)=O)c(C(C)C)cc3CC[C@@H]12 | > 50 µg/mL | 25 µg/mL | 12.5 µg/mL | 25 µg/mL |  |  |  |  |  |  | 
CC(C)c1ccc2c(c1)CC[C@H]1C(C)(CO)CCC[C@]21C (stereo not given in full) | > 50 µg/mL | > 50 µg/mL |  | 25 µg/mL | 12.5 µg/mL | 25 µg/mL | 12.5 µg/mL |  |  |  | 
COC(=O)[C@]1(C)CCC[C@]2(C)c3cc(O)c(C(C)C)cc3C(=O)C[C@@H]12 | 50 µg/mL | 25 µg/mL | 25 µg/mL | 25 µg/mL |  |  |  |  |  |  | 
COC(=O)[C@]1(C)CCC[C@]2(C)c3ccc(C(C)C)c(O)c3CC[C@@H]12 | > 25 µg/mL | > 25 µg/mL | 12.5 µg/mL | 12.5 µg/mL | 12.5 µg/mL | 25 µg/mL | 3.1 µg/mL |  |  |  | 
CC(C)c1cc2c(cc1O)[C@@]1(C)CCC[C@@](C)(C(=O)O)[C@@H]1CC2 | 25 µg/mL | 12.5 µg/mL | 12.5 µg/mL | 25 µg/mL |  |  |  |  |  |  | 
CC(C)c1ccc2c(c1O)CC[C@H]1[C@](C)(C(=O)O)CCC[C@]21C | > 25 µg/mL | > 25 µg/mL |  | 25 µg/mL | 25 µg/mL |  |  | 12.5 µg/mL |  |  | 
CC(C)c1cc2c(cc1O)[C@@]1(C)CCC[C@](C)(CO)[C@@H]1CC2=O | > 25 µg/mL | 25 µg/mL | 25 µg/mL | 25 µg/mL |  |  |  |  |  |  | 
CC(C)c1cc2c(cc1O)[C@@]1(C)CCC[C@](C)(C(=O)O)[C@@H]1CC2 [LAMBERTIC ACID] | > 50 µg/mL | > 50 µg/mL | 25 µg/mL | 25 µg/mL | 25 µg/mL | 25 µg/mL |  | 25 µg/mL |  |  | 
CC(C)c1cc2c(cc1O)[C@@]1(C)CCC[C@@](C)(CO)[C@@H]1CC2=O | 25 µg/mL | 12.5 µg/mL | 12.5 µg/mL | 25 µg/mL | 12.5 µg/mL | 12.5 µg/mL |  |  |  |  | 
Nc1nc2c(ncn2COCCO)c(=O)[nH]1 [ACYCLOVIR] |  |  | 1.5 µg/mL |  |  |  |  |  |  |  | 
COC(=O)[C@]1(C)CCC[C@]2(C)c3cc(OC(C)=O)c(C(C)C)cc3CC[C@@H]12 | 50 µg/mL | 50 µg/mL | 12.5 µg/mL | 25 µg/mL |  |  |  | 12.5 µg/mL |  |  | 
COC(=O)[C@]1(C)CCC[C@]2(C)c3cc(O)c(C(C)C)cc3CC[C@@H]12 | 50 µg/mL | 25 µg/mL | 12.5 µg/mL | 25 µg/mL |  |  |  |  |  |  | 
NC(=O)c1ncn([C@@H]2O[C@H](CO)[C@@H](O)[C@H]2O)n1 [RIBAVIRIN] | > 160 µg/mL | > 160 µg/mL |  |  |  |  |  |  |  |  | 
CC(C)c1cc2c(cc1O)[C@@]1(C)CCC[C@](C)(C(=O)O)[C@@H]1CC2=O | 25 µg/mL | 12.5 µg/mL |  |  |  |  |  |  |  |  | 
CC(C)c1cc2c(cc1O)[C@@]1(C)CCC[C@@](C)(C(=O)O)[C@@H]1CC2=O | > 50 µg/mL | 50 µg/mL | 25 µg/mL | 25 µg/mL |  |  |  |  |  |  | 
CC(C)c1cc2c(cc1O)[C@@]1(C)CCCC(C)(C)[C@@H]1CC2 [FERRUGINOL] | > 50 µg/mL | > 50 µg/mL |  | 25 µg/mL | 12.5 µg/mL | 25 µg/mL | 12.5 µg/mL |  |  |  | 
COC(=O)[C@]1(C)CCC[C@]2(C)c3ccc(C(C)C)cc3CC[C@@H]12 | > 50 µg/mL | 50 µg/mL | 25 µg/mL |  | 6.2 µg/mL |  |  | 12.5 µg/mL |  |  | 
CC(C)c1ccc2c(c1O)CC[C@H]1[C@](C)(CO)CCC[C@]21C | > 25 µg/mL | > 25 µg/mL |  | 12.5 µg/mL | 12.5 µg/mL |  |  |  |  |  | 
COC(=O)[C@]1(C)CCC[C@]2(C)c3cc(OC(C)=O)c(C(C)C)cc3C(=O)C[C@@H]12 | 25 µg/mL | 25 µg/mL | 25 µg/mL |  |  |  |  |  |  |  | 
COC(=O)[C@@]1(C)CCC[C@]2(C)c3cc(OC(C)=O)c(C(C)C)cc3C(=O)C[C@@H]12 | 50 µg/mL | 25 µg/mL |  | 25 µg/mL | 25 µg/mL |  |  |  |  |  | 
CC(C)c1ccc2c(c1)CC[C@H]1C(C)(C(=O)O)CCC[C@]21C (stereo not given in full) | 50 µg/mL | 50 µg/mL | 25 µg/mL | 12.5 µg/mL | 12.5 µg/mL | 25 µg/mL |  |  |  |  | 
COC(=O)[C@@]1(C)CCC[C@]2(C)c3cc(OC(C)=O)c(C(C)C)cc3CC[C@@H]12 | 25 µg/mL | 25 µg/mL |  | 25 µg/mL | 12.5 µg/mL | 12.5 µg/mL |  |  |  |  | 
COC(=O)[C@@]1(C)CCC[C@]2(C)c3cc(O)c(C(C)C)cc3CC[C@@H]12 | > 50 µg/mL | 50 µg/mL |  | 12.5 µg/mL | 25 µg/mL | 25 µg/mL | 12.5 µg/mL | 12.5 µg/mL |  |  | 
CC(C)c1cc2c(cc1O)[C@@]1(C)CCC[C@@](C)(CN3C(=O)c4ccccc4C3=O)[C@@H]1CC2 | > 50 µg/mL | > 50 µg/mL | 12.5 µg/mL | 6.2 µg/mL | 6.2 µg/mL | 25 µg/mL | 12.5 µg/mL | 3.1 µg/mL | <50% | 7.7 µM | Active
CC(C)c1cc2c(cc1O)[C@@]1(C)CCC[C@@](C)(CO)[C@@H]1CC2 [18-HYDROXYFERRUGINOL] | 50 µg/mL | 50 µg/mL | 12.5 µg/mL | 12.5 µg/mL | 25 µg/mL | 25 µg/mL | 3.1 µg/mL | 12.5 µg/mL |  |  | 
COC(=O)[C@@]1(C)CCC[C@]2(C)c3cc(C(C)=O)c(C(C)C)cc3CC[C@@H]12 | > 50 µg/mL | 50 µg/mL | 25 µg/mL | 25 µg/mL | 25 µg/mL | 25 µg/mL |  | 25 µg/mL |  |  | 
CC(C)c1cc2c(cc1O)[C@@]1(C)CCC[C@](C)(CO)[C@@H]1CC2 | 25 µg/mL | 12.5 µg/mL | 12.5 µg/mL | 25 µg/mL | 12.5 µg/mL |  |  |  |  |  | 
COC(=O)[C@@]1(C)CCC[C@]2(C)c3cc(O)c(C(C)C)cc3C(=O)C[C@@H]12 | 25 µg/mL | 12.5 µg/mL |  | 12.5 µg/mL |  | 12 µg/mL |  |  |  |  | 
